According to patent US8101576B2, “Compounds and their effects on feeding behaviour” (priority 2006, dated 2012):
Square brackets hold non-standard residues; d marks the D form. Ends that are not written are not given here.

Tests used:
[1] = Inhibition of food intake, subcutaneous injection to fasted rats; type: in vivo, Wistar rats
Protocol: (§1) Animals: All animal procedures were approved by the British Home Office Animals (Scientific Procedures) Act 1986 (Project License number 70/5516).
(§2) Study protocol: C57BL/6 mice (20-35 g) were injected with the peptide under investigation following a 20-hour fast. Wistar rats were injected following a 24-hour fast. […] A pre-weighed quantity of chow was presented immediately after injection.

[2] = Inhibition of food intake, intraperitoneal injection to fasted mice; type: in vivo, C57BL/6 mice; details: over 24 hours
Protocol: as §1, §2

D-His Ala Asp Gly Thr Phe Thr Ser Asp Tyr Ser Lys Tyr Leu Glu Glu Glu Leu Val Lys Tyr Phe Ile Gln Trp Leu Lys Asn Gly Gly Pro Ser Lys Asn Asn Ile Ala Lys ([dH]ADGTFTSDYSKYLEEELVKYFIQWLKNGGPSKNNIAK) [PEPTIDE NO: 204]
Mean cumulative food intake in comparison to saline control ([1]; 5 nmoles/kg, over 32 hours): potent and long acting suppression of food intake | food intake in comparison to control group treated with native oxyntomodulin ([1]; 5 nmoles/kg, over 32 hours): lower than in the control group treated with native oxyntomodulin

D-His Ala Asp Gly Thr Phe Thr Ser Asp Tyr Ser Lys Tyr Leu Glu Glu Glu Leu Val Lys Tyr Phe Ile Glu Trp Leu Met Asn Thr Lys Arg Asn Lys Asn Asn Ile Ala ([dH]ADGTFTSDYSKYLEEELVKYFIEWLMNTKRNKNNIA) [PEPTIDE NO: 153]
Mean cumulative food intake in comparison to saline control ([1]; 200 mmoles/kg, over 24 hours): potent and long acting suppression of food intake | food intake in comparison to control group treated with native oxyntomodulin ([1]; 200 mmoles/kg, over 24 hours): lower than in the control group treated with native oxyntomodulin

D-His Ala Asp Gly Thr Phe Thr Ser Asp Tyr Ser Lys Tyr Leu Glu Glu Glu Leu Val Lys Tyr Phe Leu Gln Trp Leu Lys Asn Ala Gly Pro Ser Lys Asn Asn Ile Ala ([dH]ADGTFTSDYSKYLEEELVKYFLQWLKNAGPSKNNIA) [PEPTIDE NO: 148]
Mean cumulative food intake in comparison to saline control ([1]; 10 nmoles/kg, over 24 hours): potent and long acting suppression of food intake | food intake in comparison to control group treated with native oxyntomodulin ([1]; 10 nmoles/kg, over 24 hours): lower than in the control group treated with native oxyntomodulin

D-His Ala Gln Gly Thr Phe Thr Ser Asp Tyr Ser Lys Tyr Leu Glu Gln Glu Ile Val Lys Tyr Phe Ile Gln Trp Leu Lys Asn Ala Gly Pro Ser Lys Asn Asn Ile Ala ([dH]AQGTFTSDYSKYLEQEIVKYFIQWLKNAGPSKNNIA) [PEPTIDE NO: 142]
Mean cumulative food intake in comparison to saline control ([1]; 3 nmoles/kg, over 24 hours): potent and long acting suppression of food intake | food intake in comparison to control group treated with native oxyntomodulin ([1]; 3 nmoles/kg, over 24 hours): lower than in the control group treated with native oxyntomodulin

D-His Ala Gln Gly Thr Phe Thr Ser Asp Tyr Ser Lys Tyr Leu Glu Gln Glu Ile Val Lys Tyr Phe Leu Gln Trp Leu Lys Asn Ala Gly Pro Ser Lys Asn Asn Ile Ala ([dH]AQGTFTSDYSKYLEQEIVKYFLQWLKNAGPSKNNIA) [PEPTIDE NO: 136]
Mean cumulative food intake in comparison to saline control ([2]; 5 nmoles/kg): potent and long acting suppression of food intake | food intake in comparison to control group treated with native oxyntomodulin ([2]; 5 nmoles/kg): lower than in the control group treated with native oxyntomodulin

D-His Ala Gln Gly Thr Phe Thr Ser Asp Tyr Ser Lys Tyr Leu Glu Glu Glu Leu Val Lys Tyr Phe Leu Gln Trp Leu Lys Asn Ala Gly Pro Ser Lys Asn Asn Ile Ala ([dH]AQGTFTSDYSKYLEEELVKYFLQWLKNAGPSKNNIA) [PEPTIDE NO: 100]
Mean cumulative food intake in comparison to saline control ([1]; 20 nmoles/kg, over 24 hours): potent and long acting suppression of food intake | food intake in comparison to control group treated with native oxyntomodulin ([1]; 20 nmoles/kg, over 24 hours): lower than in the control group treated with native oxyntomodulin

D-His Ala Gln Gly Thr Phe Thr Ser Asp Tyr Ser Lys Tyr Leu glu Glu Glu Leu Val Lys Tyr Phe Ile Gln Trp Leu Met Asn Thr Lys Arg Asn Lys Asn Asn Ile Ala ([dH]AQGTFTSDYSKYLEEELVKYFIQWLMNTKRNKNNIA; not fully specified (residue 15)) [PEPTIDE NO: 108]
Mean cumulative food intake in comparison to saline control ([2]; 100 nmoles/kg): potent and long acting suppression of food intake | food intake in comparison to control group treated with native oxyntomodulin ([2]; 100 nmoles/kg): lower than in the control group treated with native oxyntomodulin

D-His Ser Gln Gly Thr Phe Thr Ser Asp Tyr Ser Lys Tyr Leu Glu Gln Glu Ile Val Lys Tyr Phe Ile Gln Trp Leu Lys Asn Ala Gly Pro Ser Lys Asn Asn Ile Ala ([dH]SQGTFTSDYSKYLEQEIVKYFIQWLKNAGPSKNNIA) [PEPTIDE NO: 94]
Mean cumulative food intake in comparison to saline control ([1]; 5 nmoles/kg, over 24 hours): potent and long acting suppression of food intake | food intake in comparison to control group treated with native oxyntomodulin ([1]; 5 nmoles/kg, over 24 hours): lower than in the control group treated with native oxyntomodulin

D-His Ser Gln Gly Thr Phe Thr Ser Asp Tyr Ser Lys Tyr Leu Glu Gln Glu Leu Val Lys Tyr Phe Ile Gln Trp Leu Lys Asn Ala Gly Pro Ser Lys Asn Asn Ile Ala ([dH]SQGTFTSDYSKYLEQELVKYFIQWLKNAGPSKNNIA) [PEPTIDE NO: 82]
Mean cumulative food intake in comparison to saline control ([1]; 10 nmoles/kg, over 24 hours): potent and long acting suppression of food intake | food intake in comparison to control group treated with native oxyntomodulin ([1]; 10 nmoles/kg, over 24 hours): lower than in the control group treated with native oxyntomodulin

D-His Ser Gln Gly Thr Phe Thr Ser Asp Tyr Ser Lys Tyr Leu Glu Glu Glu Leu Val Lys Tyr Phe Ile Gln Trp Leu Lys Asn Ala Gly Pro Ser Lys Asn Asn Ile Ala ([dH]SQGTFTSDYSKYLEEELVKYFIQWLKNAGPSKNNIA) [PEPTIDE NO: 58]
Mean cumulative food intake in comparison to saline control ([1]; 10 nmoles/kg, over 24 hours): potent and long acting suppression of food intake | food intake in comparison to control group treated with native oxyntomodulin ([1]; 10 nmoles/kg, over 24 hours): lower than in the control group treated with native oxyntomodulin

D-His Ser Gln Gly Thr Phe Thr Ser Asp Tyr Ser Lys Tyr Leu Glu Glu Glu Leu Val Lys Tyr Phe Ile Gln Trp Leu Met Asn Thr Lys Arg Asn Lys Asn Asn Ile Ala ([dH]SQGTFTSDYSKYLEEELVKYFIQWLMNTKRNKNNIA) [PEPTIDE NO: 60]
Mean cumulative food intake in comparison to saline control ([1]; 100 nmoles/kg, over 24 hours): potent and long acting suppression of food intake | food intake in comparison to control group treated with native oxyntomodulin ([1]; 100 nmoles/kg, over 24 hours): lower than in the control group treated with native oxyntomodulin

D-His Ser Gln Gly Thr Phe Thr Ser Asp Tyr Ser Lys Tyr Leu Glu Glu Glu Leu Val Lys Tyr Phe Leu Gln Trp Leu Lys Asn Ala Gly Pro Ser Lys Asn Asn Ile Ala ([dH]SQGTFTSDYSKYLEEELVKYFLQWLKNAGPSKNNIA) [PEPTIDE NO: 52]
Mean cumulative food intake in comparison to saline control ([1]; 10 nmoles/kg, over 24 hours): potent and long acting suppression of food intake | food intake in comparison to control group treated with native oxyntomodulin ([1]; 10 nmoles/kg, over 24 hours): lower than in the control group treated with native oxyntomodulin

His Ser Gln Gly Thr Phe Thr Ser Asp Tyr Ser Lys Tyr Leu Glu Glu Glu Ile Val Lys Tyr Phe ILe Gln Trp Leu Lys Asn Ala Gly Pro Ser Lys Asn Asn Ile Ala (HSQGTFTSDYSKYLEEEIVKYFIQWLKNAGPSKNNIA) [PEPTIDE NO: 22]
Mean cumulative food intake in comparison to saline control ([1]; 3 nmoles/kg, over 24 hours): potent and long acting suppression of food intake | food intake in comparison to control group treated with native oxyntomodulin ([1]; 3 nmoles/kg, over 24 hours): lower than in the control group treated with native oxyntomodulin

PEPTIDE NO: 216: analogue of oxyntomodulin with Asn34 replaced by Asp34; sequence shown only in FIG. 1 (HSQGTFTSDYSKYLEEELVKYFLEWLKNAGPSKDNIA)
food intake suppression continues for ([1]; 10 nmoles/kg, 24 hours observed): ≥ 24 h | Mean cumulative food intake in comparison to saline control ([1]; 10 nmoles/kg, over 24 hours): potent and long acting suppression of food intake | food intake in comparison to control group treated with native oxyntomodulin ([1]; 10 nmoles/kg, over 24 hours): lower than in the control group treated with native oxyntomodulin

[dH]ADGWFWSDYSKYLDSRRAQDFVQWLKNAGPSKNNIA [PEPTIDE NO: 199]
Mean cumulative food intake in comparison to saline control ([1]; 500 nmoles/kg, over 24 hours): potent and long acting suppression of food intake | food intake in comparison to control group treated with native oxyntomodulin ([1]; 500 nmoles/kg, over 24 hours): lower than in the control group treated with native oxyntomodulin
